In PubChem BioAssay AID330 (DTP/NCI, 2004):
Where “and” joins values, the source holds several entries; their conditions need not be identical. Equal values may be shown once. Toxic doses and inconclusive results are not listed. The calls were made as follows: active = survival T/C of 150% or more; inactive = T/C below 125% in these data.

System: P388 leukemia ip, CD2F1 mice, survival T/C
Test: NCI In Vivo Anticancer Drug Screen. Data for tumor model P388 Leukemia (intraperitoneal) in CD2F1 (CDF1) mice
Conditions: endpoint: median survival time, higher = longer survival
Outline: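 Mice carrying the transplanted tumor received test compound or vehicle. Survival was recorded in each group, and the value is the treated-group measurement divided by that of the vehicle-treated control group.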

[1] = dose: 60.0 mg/kg/injection, schedule: Q01DX005 (ip), vehicle: saline with Tween-80
[2] = dose: 120.0 mg/kg/injection, schedule: Q01DX005 (ip), vehicle: saline with Tween-80
[3] = dose: 240.0 mg/kg/injection, schedule: Q01DX005 (ip), vehicle: saline with Tween-80
[4] = dose: 12.5 mg/kg/injection, schedule: Q01DX009 (ip), vehicle: saline
[5] = dose: 50.0 mg/kg/injection, schedule: Q01DX009 (ip), vehicle: saline
[6] = dose: 50.0 mg/kg/injection, schedule: Q01DX005 (ip), vehicle: saline with Tween-80
[7] = dose: 100.0 mg/kg/injection, schedule: Q01DX005 (ip), vehicle: saline with Tween-80
[8] = dose: 200.0 mg/kg/injection, schedule: Q01DX005 (ip), vehicle: saline with Tween-80
[9] = dose: 100.0 mg/kg/injection, schedule: Q04DX003 (ip), vehicle: Klucel (hydroxypropylcellulose) (HPC)
[10] = dose: 50.0 mg/kg/injection, schedule: Q01DX009 (ip), vehicle: Klucel (hydroxypropylcellulose) (HPC)
[11] = dose: 100.0 mg/kg/injection, schedule: Q01DX009 (ip), vehicle: Klucel (hydroxypropylcellulose) (HPC)
[12] = dose: 200.0 mg/kg/injection, schedule: Q01DX009 (ip), vehicle: Klucel (hydroxypropylcellulose) (HPC)
[13] = dose: 12.5 mg/kg/injection, schedule: Q01DX009 (ip), vehicle: Klucel (hydroxypropylcellulose) (HPC)
[14] = dose: 25.0 mg/kg/injection, schedule: Q01DX009 (ip), vehicle: Klucel (hydroxypropylcellulose) (HPC)

Measured: T/C

C=C1[C@@H](O)C[C@@H]2C[C@@]3(C)[C@H](C(C)(C)C[C@@H]3O)C12O (stereo partly specified)
inactive: dose: 3.75 mg/kg/injection, schedule: Q01DX005 (ip), vehicle: saline 98 % of control | dose: 7.5 mg/kg/injection, schedule: Q01DX005 (ip), vehicle: saline 100 % of control | dose: 15.0 mg/kg/injection, schedule: Q01DX005 (ip), vehicle: saline 98 % of control

Cc1ccc(NC(=O)Oc2ccc(C#N)cc2)c(C)c1
inactive: [1] 92 % of control | [2] 95 % of control | [3] 101 % of control

FC(F)(F)c1ccccc1NC(=S)SCc1ccc2c(c1)OCO2
inactive: [4] 97 % of control | dose: 25.0 mg/kg/injection, schedule: Q01DX009 (ip), vehicle: saline 90 % of control | [5] 100 % of control

CCCCCCN(CCCCCC)CC(O)c1cc2c(c3ccccc13)CCCC2 (stereo unspecified)
inactive: [6] 94 % of control | [7] 103 % of control | [8] 103 % of control

O=C1CCCCC12CCCC2
inactive: dose: 87.5 mg/kg/injection, schedule: Q01DX001 (ip), vehicle: saline sonified 100 % of control | dose: 175.0 mg/kg/injection, schedule: Q01DX001 (ip), vehicle: saline sonified 100 % of control | dose: 250.0 mg/kg/injection, schedule: Q01DX001 (ip), vehicle: saline sonified 105 % of control

Cc1ccc(S(=O)(=O)N/N=C2\COC(C)C2)cc1 (stereo unspecified)
inactive: [6] 93 % of control | [7] 91 % of control

Oc1c(Cl)cc(Cl)cc1C=Nc1ccc2c(ccc3c4ccccc4ccc23)c1
inactive: dose: 25.0 mg/kg/injection, schedule: Q04DX003 (ip), vehicle: Klucel (hydroxypropylcellulose) (HPC) 105 % of control | dose: 50.0 mg/kg/injection, schedule: Q04DX003 (ip), vehicle: Klucel (hydroxypropylcellulose) (HPC) 105 % of control | [9] 109 % of control and 86 % of control

CCCCN(C(=O)N(CC)CC)[Si](C)(C)C
inactive: [10] 107 % of control | [11] 100 % of control | [12] 107 % of control

Cc1ccc2c(c1)C(O)(CC(=O)c1ccccc1)C(=O)N2 (stereo unspecified)
inactive: dose: 50.0 mg/kg/injection, schedule: Q01DX009 (ip), vehicle: saline with Tween-80 99 % of control | dose: 100.0 mg/kg/injection, schedule: Q01DX009 (ip), vehicle: saline with Tween-80 96 % of control | dose: 200.0 mg/kg/injection, schedule: Q01DX009 (ip), vehicle: saline with Tween-80 95 % of control

N#CC1C(=O)NC(=O)C(C#N)C1C(Cl)(Cl)Cl (stereo unspecified)
inactive: [10] 100 % of control | [11] 93 % of control | [12] 102 % of control

CCOC(=O)c1ccc2c(c1)NCc1cccc(OC)c1O2
inactive: dose: 60.0 mg/kg/injection, schedule: Q01DX005 (ip), vehicle: Klucel (hydroxypropylcellulose) (HPC) 100 % of control | dose: 120.0 mg/kg/injection, schedule: Q01DX005 (ip), vehicle: Klucel (hydroxypropylcellulose) (HPC) 103 % of control | dose: 240.0 mg/kg/injection, schedule: Q01DX005 (ip), vehicle: Klucel (hydroxypropylcellulose) (HPC) 100 % of control

O=C(O)C(=O)O.O=C(O)C(=O)O.OO.OO.[Nb]
inactive: [4] 98 % of control

COc1ccc(C(N)=O)cc1N=NN(C)C
inactive: dose: 3.12 mg/kg/injection, schedule: Q01DX009 (ip), vehicle: Klucel (hydroxypropylcellulose) (HPC) 103 % of control | dose: 3.13 mg/kg/injection, schedule: Q01DX009 (ip), vehicle: Klucel (hydroxypropylcellulose) (HPC) 103 % of control | dose: 6.25 mg/kg/injection, schedule: Q01DX009 (ip), vehicle: Klucel (hydroxypropylcellulose) (HPC) 98 % of control | [13] 107 % of control and 114 % of control | [14] 121 % of control and 123 % of control | [10] 118 % of control and 94 % of control

CCCNP1(NCCC)=NP(NCCC)(NCCC)=NP(NCCC)(NCCC)=NP(NCCC)(NCCC)=N1
inactive: dose: 12.5 mg/kg/injection, schedule: Q01DX005 (ip), vehicle: saline with Tween-80 104 % of control | dose: 25.0 mg/kg/injection, schedule: Q01DX005 (ip), vehicle: saline with Tween-80 99 % of control | [6] 100 % of control and 104 % of control

C1CCC2OCCOCCOC3CCCCC3OCCOCCOC2C1 (stereo unspecified)
inactive: [13] 95 % of control and 96 % of control | [14] 114 % of control and 91 % of control

COc1cc2c(c(OC)c1OC)-c1cc3c(cc1C(OC1OC4COC(c5cccs5)OC4C(O)C1O)C1COC(=O)C1C2)OCO3 (stereo unspecified)
inactive: dose: 14.5 mg/kg/injection, schedule: Q01DX005 (ip), vehicle: Klucel (hydroxypropylcellulose) (HPC) 101 % of control | dose: 29.0 mg/kg/injection, schedule: Q01DX005 (ip), vehicle: Klucel (hydroxypropylcellulose) (HPC) 99 % of control | dose: 58.0 mg/kg/injection, schedule: Q01DX005 (ip), vehicle: Klucel (hydroxypropylcellulose) (HPC) 94 % of control | dose: 116.0 mg/kg/injection, schedule: Q01DX005 (ip), vehicle: Klucel (hydroxypropylcellulose) (HPC) 90 % of control

COc1ccc(N2C(=O)CCC2=O)cc1
inactive: dose: 100.0 mg/kg/injection, schedule: Q01DX001 (ip), vehicle: saline with Tween-80 109 % of control | dose: 200.0 mg/kg/injection, schedule: Q01DX001 (ip), vehicle: saline with Tween-80 100 % of control | dose: 400.0 mg/kg/injection, schedule: Q01DX001 (ip), vehicle: saline with Tween-80 95 % of control

CN1CCCCC1Cc1ccccc1 (stereo unspecified)
inactive: dose: 6.25 mg/kg/injection, schedule: Q01DX005 (ip), vehicle: saline 103 % of control | dose: 12.5 mg/kg/injection, schedule: Q01DX005 (ip), vehicle: saline 102 % of control | dose: 25.0 mg/kg/injection, schedule: Q01DX005 (ip), vehicle: saline 100 % of control

N#CC(Br)C(N)=O (stereo unspecified)
inactive: dose: 1.25 mg/kg/injection, schedule: Q01DX009 (ip), vehicle: saline with Tween-80 104 % of control | dose: 2.5 mg/kg/injection, schedule: Q01DX009 (ip), vehicle: saline with Tween-80 124 % of control | dose: 5.0 mg/kg/injection, schedule: Q01DX009 (ip), vehicle: saline with Tween-80 119 % of control

N#CC(C(=O)CCc1nc2ccccc2[nH]1)c1c(Cl)cccc1Cl (stereo unspecified)
inactive: [1] 109 % of control | [2] 101 % of control | [3] 102 % of control

COc1cccc(N=Nc2c(-c3ccccc3)nn(C(=S)S)c2C)c1
inactive: [6] 93 % of control | [7] 93 % of control | [8] 91 % of control

C[N+](C)(C)CCCSc1nc2ccccc2[nH]1
inactive: dose: 0.13 mg/kg/injection, schedule: Q01DX009 (ip), vehicle: saline 95 % of control | dose: 0.25 mg/kg/injection, schedule: Q01DX009 (ip), vehicle: saline 103 % of control | dose: 0.5 mg/kg/injection, schedule: Q01DX009 (ip), vehicle: saline 103 % of control | dose: 1.0 mg/kg/injection, schedule: Q01DX009 (ip), vehicle: saline 104 % of control

CC(O)CN1C=NC(C)C1 (stereo unspecified)
inactive: [5] 95 % of control | dose: 100.0 mg/kg/injection, schedule: Q01DX009 (ip), vehicle: saline 100 % of control | dose: 200.0 mg/kg/injection, schedule: Q01DX009 (ip), vehicle: saline 103 % of control

O=C1C=C[C@]2(C(=O)O)[C@@H]3C=C[C@@H](CC3)[C@H]12
inactive: [9] 96 % of control | dose: 200.0 mg/kg/injection, schedule: Q04DX003 (ip), vehicle: Klucel (hydroxypropylcellulose) (HPC) 100 % of control | dose: 400.0 mg/kg/injection, schedule: Q04DX003 (ip), vehicle: Klucel (hydroxypropylcellulose) (HPC) 90 % of control

O=C1C(=C2C=CN(CCCN3CCCCC3)C=C2)C(=O)c2ccccc21
inactive: [10] 91 % of control | [11] 102 % of control | [12] 102 % of control
